ChEMBL document CHEMBL1201862, “PubChem BioAssay data set” (2004)
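Results reflect a 48-hour exposure of cells in 96-well plates to compound at five concentrations. GI50 marks 50% less growth.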 Activity calls are given as the source filed them. No stated cut-off is given here; in the data, active = GI50 up to about 1.1 µM and inactive = higher.

Key:
Experiment in all cases: NCI tumour cell line growth inhibition, 48 h
HCT-15 = test system: HCT-15
CCRF-CEM = test system: CCRF-CEM
NCI/ADR-RES = test system: NCI/ADR-RES
SR = test system: SR
EKVX = test system: EKVX
A549 = test system: A549
SK-MEL-5 = test system: SK-MEL-5
SF-539 = test system: SF-539
UACC-62 = test system: UACC-62
HOP-62 = test system: HOP-62
MDA-MB-435 = test system: MDA-MB-435
M14 = test system: M14
HT-29 = test system: HT-29
RPMI-8226 = test system: RPMI-8226
U-251 = test system: U-251
OVCAR-3 = test system: OVCAR-3
SN12C = test system: SN12C
Malme-3M = test system: Malme-3M
HL-60 = test system: HL-60
Hs-578T = test system: Hs-578T

Measured: GI50

C=CCC1(O)CC(n2cc(C)c(=O)[nH]c2=O)OC1CO[Si](C)(C)C(C)(C)C (centres undefined)
44.4 µM: HCT-15
inactive: CCRF-CEM 43.8 µM | NCI/ADR-RES 43.1 µM | SR 45 µM | EKVX 36.7 µM | A549 35.5 µM | SK-MEL-5 34.4 µM | SF-539 53.5 µM | UACC-62 35.9 µM | HOP-62 > 100 µM | MDA-MB-435 41.5 µM | M14 46.7 µM | HT-29 40.9 µM | RPMI-8226 37.4 µM | U-251 75.3 µM | OVCAR-3 39 µM | SN12C 31.6 µM

CC(=O)[C@@]1(C)CC2(CCN(C)CC2)OC1C (some centres undefined)
> 100 µM: HCT-15
inactive: Malme-3M > 100 µM | NCI/ADR-RES > 100 µM | EKVX > 100 µM | A549 > 100 µM | SK-MEL-5 > 100 µM | SF-539 > 100 µM | HOP-62 > 100 µM | MDA-MB-435 > 100 µM | M14 > 100 µM | HT-29 > 100 µM | RPMI-8226 > 100 µM | U-251 > 100 µM | OVCAR-3 > 100 µM | SN12C > 100 µM

COc1cc(C2c3cc(O)c(OC)cc3C3OCC2C3CO)ccc1O (centres undefined)
inactive: HL-60 > 100 µM | Malme-3M > 100 µM | NCI/ADR-RES > 100 µM | SR > 100 µM | EKVX > 100 µM | A549 > 100 µM | SK-MEL-5 > 100 µM | SF-539 > 100 µM | UACC-62 > 100 µM | HOP-62 > 100 µM | MDA-MB-435 > 100 µM | M14 > 100 µM | HT-29 > 100 µM | RPMI-8226 > 100 µM | U-251 > 100 µM | OVCAR-3 > 100 µM
> 100 µM: HCT-15

CCOC(=O)/C=C1\c2ccccc2C(=O)N1CC(=O)OCC
inactive: Malme-3M > 100 µM | CCRF-CEM > 100 µM | NCI/ADR-RES 50 µM | EKVX > 100 µM | A549 > 100 µM | SK-MEL-5 > 100 µM | UACC-62 > 100 µM | HOP-62 > 100 µM | MDA-MB-435 > 100 µM | M14 > 100 µM | Hs-578T > 100 µM | RPMI-8226 > 100 µM | U-251 > 100 µM | OVCAR-3 > 100 µM | SN12C > 100 µM
> 100 µM: HCT-15

Cc1oc2nc(N(C)C)nc(NN)c2c1C
> 100 µM: HCT-15
inactive: HL-60 > 100 µM | CCRF-CEM > 100 µM | NCI/ADR-RES > 100 µM | EKVX > 100 µM | A549 > 100 µM | SK-MEL-5 > 100 µM | SF-539 > 100 µM | UACC-62 > 100 µM | HOP-62 > 100 µM | MDA-MB-435 > 100 µM | M14 > 100 µM | HT-29 > 100 µM | Hs-578T > 100 µM | RPMI-8226 > 100 µM | U-251 > 100 µM | OVCAR-3 > 100 µM | SN12C > 100 µM

CCOC(=O)c1cc(C2CCN(Cc3ccccc3)C2=O)c(C(=O)/C=C(/C)N)[nH]1 (centres undefined)
> 100 µM: HCT-15
inactive: Malme-3M > 100 µM | NCI/ADR-RES 72.1 µM | EKVX > 100 µM | A549 73.6 µM | SK-MEL-5 > 100 µM | UACC-62 > 100 µM | HOP-62 30.5 µM | MDA-MB-435 > 100 µM | M14 > 100 µM | HT-29 > 100 µM | Hs-578T 98.4 µM | RPMI-8226 > 100 µM | U-251 > 100 µM | OVCAR-3 81.3 µM

COc1cc2c(c(OC)c1OC)-c1ccc(SC)c(=O)cc1C(CC(=O)Oc1ccc(F)cc1)C2 (centres undefined)
active: HL-60 0.043 µM | Malme-3M 0.392 µM | CCRF-CEM 0.238 µM | SR 0.0466 µM | A549 0.134 µM | SK-MEL-5 0.193 µM | SF-539 0.117 µM | UACC-62 0.129 µM | HOP-62 0.341 µM | M14 0.172 µM | HT-29 0.164 µM | RPMI-8226 0.296 µM | U-251 0.159 µM | OVCAR-3 0.134 µM | SN12C 0.367 µM
inactive: EKVX 5.04 µM
0.26 µM: HCT-15

COc1cc2c(cc1OC)[Se]c1cc(OC)c(OC)cc1[Se]2
5.3 µM: HCT-15
inactive: HL-60 3.93 µM | Malme-3M > 10 µM | CCRF-CEM > 10 µM | SR 4.74 µM | EKVX > 10 µM | A549 > 10 µM | SK-MEL-5 > 10 µM | SF-539 90.8 µM | UACC-62 > 10 µM | HOP-62 > 10 µM | M14 > 10 µM | HT-29 6.81 µM | RPMI-8226 > 10 µM | U-251 > 10 µM | OVCAR-3 > 10 µM | SN12C > 10 µM

Cc1c(O)c(OC2OC(CO)C(O)C(O)C2O)cc2c1CC[C@@H]1C2(C)C(=O)C[C@]2(C)[C@@H]([C@@](C)(O)C3CCC(C)(C)O3)[C@H](O)C[C@@]12C (some centres undefined)
> 100 µM: HCT-15
inactive: Malme-3M > 100 µM | CCRF-CEM > 100 µM | NCI/ADR-RES > 100 µM | SR > 100 µM | EKVX > 100 µM | A549 > 100 µM | SK-MEL-5 > 100 µM | SF-539 > 100 µM | UACC-62 > 100 µM | HOP-62 > 100 µM | MDA-MB-435 > 100 µM | M14 > 100 µM | HT-29 > 100 µM | U-251 > 100 µM | OVCAR-3 > 100 µM | SN12C > 100 µM
